Assay: Physical stability upon storage
Assay type: physicochemical
Conditions: drug substance; room temperature without need for refrigeration

CCCNC(=O)c1cn2c(c1C)C(Nc1cc(C(=O)NC3CC3)ccc1C)=NCN2.Cl [p38 inhibitor]
physical stability upon storage: good physical stability
